The values below come from paper PMC10641236, “Influenza A virus replication has a stronger dependency on Raf/MEK/ERK signaling pathway activity than SARS-CoV-2” (Frontiers in Cellular and Infection Microbiology, 2023).

Read-outs that look alike come from different tables or passages of the source.

Data set [1] has as its system IAV Fukui. Further details: method as in Laure et al., 2020. Particulars: medium containing 0.2% BSA, ref Laure et al., 2020; cited from earlier work.
The subject of data set [2] is IAV PR8. Type of data set: cell-based. The conditions noted are these: 100 µM, Caco-2 cells, MOI 4, 10 h.
The test system of data set [3] is SARS-CoV-2. Type of data set: cell-based. Particulars: 100 µM, Caco-2 cells, MOI 4, 10 h.
For data set [4] the following is noted: human, in vivo; cited from earlier work.
Data set [5] has as its system IAV PR8 NP. Type of data set: cell-based. Particulars: MOI 0.01, 24 h; for reduction of IAV PR8 NP (NP/ERK2 normalized to solvent control): both cell lines.
Data set [6] has as its system TMPRSS2. The data set can be described thus: TMPRSS2 expression by flow cytometry. Type of data set: cell-based, Homo sapiens. The conditions noted are these: Caco-2 cells, 24 h. The method, then: For flow cytometry analysis, 6 × 10^5 Caco-2 cells were seeded per well in six-well plates (Greiner Bio-One, Kremsmünster, Austria) and incubated for 24 h at 37°C, 5% CO2. Treatment with zapnometinib or a solvent control (1% DMSO) in medium containing 0.2% BSA was applied for 24 h. A single-cell solution was prepared using TrypLE reagent (Thermo Fisher Scientific, Waltham, MA, USA). Prior to staining, cells were treated with an FcR blocking reagent (Miltenyi Biotec, Bergisch Gladbach, Germany) for 10 min at 4°C. The cells were then stained with either a PE Mouse IgG1Isotype control antibody (BioLegend, San Diego, CA, USA) or a PE anti-human TMPRSS2 Antibody (BioLegend, San Diego, CA, USA), followed by a live-dead staining using the LIVE/DEAD™ Fixable Far Red Dead Cell Stain Kit (Thermo Fisher Scientific, Waltham, MA, USA). Cells were analyzed using the BD FACSCanto II flow cytometer (Becton Dickinson, Franklin Lakes, New Jersey, USA) and the FlowJo software (Becton Dickinson, Franklin Lakes, New Jersey, USA).
Background: A flow cytometer gives signals particle by particle.

Data set [7] relates to ERK2. The data set can be described thus: ERK2 content in cell lysates by WES. Particulars: Caco-2 and Calu-3 cell lysates, 24 h of treatment. Type of data set: cell-based, Homo sapiens. The method, then: Cells were lysed using cold modified RIPA buffer [0.24% (w/v) tris base (Sigma-Aldrich, St. Louis, Missouri, USA), 0.88% (w/v) NaCl (Carl Roth, Karlsruhe, Germany), 0.2% (v/v) 500 mM ethylenediaminetetraacetic acid (EDTA) (Sigma-Aldrich, St. Louis, Missouri, USA), 1% (v/v) Triton X-100 (Sigma-Aldrich, St. Louis, Missouri, USA), 0.5% (w/v) sodium deoxycholate (Sigma-Aldrich, St. Louis, Missouri, USA), 0.1% (w/v) sodium dodecyl sulfate (SDS) (Carl Roth, Karlsruhe, Germany), 10% (v/v) glycerol (Carl Roth, Karlsruhe, Germany), 0.05% phenylmethylsulfonyl fluoride (PMSF) (Carl Roth, Karlsruhe, Germany), 0.01% Benzonase® Nuclease (Sigma-Aldrich, St. Louis, Missouri, USA), protease inhibitor cocktail (Roche, Basel, Switzerland), and phosphatase inhibitor cocktail (Roche, Basel, Switzerland) in water]. Determination of the protein concentration was performed using the Pierce™ BCA Protein Assay Kit (Thermo Fisher Scientific Inc., Waltham, MA, USA) according to the manufacturer’s instructions. […] Ratios were calculated from the area under the curve of the respective detected signals.

The test system of data set [8] is COVID-19. The conditions noted are these: hospitalized COVID-19 patients; ref ClinicalTrials.gov NCT04776044; cited from earlier work.
In data set [9] the test system is MEK1/2 (ERK1/2 phosphorylation). The data set can be described thus: IC50 determination in the absence of viral infection, TNF-α-stimulated cells, pERK/ERK ratio by WES. Type of data set: cell-based. Particulars: Homo sapiens, TNF-α 30 min then 1 h treatment, no virus. On the procedure: Cells were lysed using cold modified RIPA buffer [0.24% (w/v) tris base (Sigma-Aldrich, St. Louis, Missouri, USA), 0.88% (w/v) NaCl (Carl Roth, Karlsruhe, Germany), 0.2% (v/v) 500 mM ethylenediaminetetraacetic acid (EDTA) (Sigma-Aldrich, St. Louis, Missouri, USA), 1% (v/v) Triton X-100 (Sigma-Aldrich, St. Louis, Missouri, USA), 0.5% (w/v) sodium deoxycholate (Sigma-Aldrich, St. Louis, Missouri, USA), 0.1% (w/v) sodium dodecyl sulfate (SDS) (Carl Roth, Karlsruhe, Germany), 10% (v/v) glycerol (Carl Roth, Karlsruhe, Germany), 0.05% phenylmethylsulfonyl fluoride (PMSF) (Carl Roth, Karlsruhe, Germany), 0.01% Benzonase® Nuclease (Sigma-Aldrich, St. Louis, Missouri, USA), protease inhibitor cocktail (Roche, Basel, Switzerland), and phosphatase inhibitor cocktail (Roche, Basel, Switzerland) in water]. Determination of the protein concentration was performed using the Pierce™ BCA Protein Assay Kit (Thermo Fisher Scientific Inc., Waltham, MA, USA) according to the manufacturer’s instructions. The samples were analyzed by Wes™ using a total protein concentration of 0.25–0.5 µg/µL for each sample, the Jess/Wes Separation kit (12–230 kDa), primary antibodies against ERK1/2, p44/42 MAPK (137F5) Rabbit mAb (Cell Signaling Technology, Danvers, MA, USA, Cat. No. 4695S) and phospho-ERK1/2 (pERK1/2), Phospho-p44/42 MAPK (Erk1/2) (Thr202/Tyr204) (D13.14.4E), XP® Rabbit mAb (Cell Signaling Technology, Danvers, MA, USA, Cat. no. 4370S) in a 1:50 dilution, anti-Influenza A virus Nucleoprotein (NP) antibody (rabbit MAb) (Sino Biological, Beijing, China Cat.no 40208-R010) in a 1:150 dilution, SARS-CoV-2 nucleocapsid protein antibody (ProSci Inc., Poway, CA, USA, Cat. no. 35-580) in a 1:100 dilution, the anti-goat, anti-rabbit, and anti-mouse detection modules, and the EZ Standard Pack 1 (12–230 kDa), according to the manufacturer’s instructions. Analysis of the obtained data was performed using the Compass for SW 4.1.0 software, Microsoft Excel, and the GraphPad Prism 9.2.0 software. Ratios were calculated from the area under the curve of the respective detected signals.
Twenty-four hours before the experiment, the growth medium was exchanged to medium with respective FBS or BSA concentration. Then, cells were stimulated by the addition of tumor necrosis factor alpha (TNF-α) (Sigma-Aldrich, St. Louis, Missouri, USA) for 30 min at 37°C, 5% CO2, followed by treatment with different zapnometinib concentrations and a DMSO (solvent) control for 1 h. For determination of the IC50 value in cells infected with IAV PR8 or SARS-CoV-2, cells were infected with the respective virus and treated with zapnometinib for 24 h as described in the “Virus yield reduction assay” section. After incubation, cell lysates were prepared, and the samples were analyzed by WES™ as described in the “Preparation of cell lysates and WES™ analysis” section. The pERK/ERK ratio was calculated and normalized to the solvent control. IC50 values were determined using the “log(inhibitor) vs. response -Variable slope (four parameters)” equation in GraphPad Prism version 9.4.0.

Turning to `O=C(O)c1ccc(F)c(F)c1Nc1ccc(I)cc1Cl` [zapnometinib, 2-(2-chloro-4-iodophenylamino)-N-3,4-difluoro benzoic acid], the concentration giving a half-maximal response (EC50) in data set [1] is 4.5 µM. For the same compound, in data set [2], the “Infected cells (IAV PR8 NP positive) normalized to solvent control” value is listed as 44.9%. For the same compound, the “localization of the IAV NP” value in [2] is “retention of the IAV NP in the nucleus”. Also, in data set [3], the “Infected cells (SARS-CoV-2 N positive) normalized to solvent control” value was 18.3%. Further, the “amount of SARS-CoV-2 N” value in [3] was “reduced”. Moreover, the “distribution of the SARS-CoV-2 N” value in data set [3] is recorded as “did not change”. Besides, in data set [4], the “tolerability in phase I clinical trial” value is “well tolerated”. Further, the “reduction of IAV PR8 NP (NP/ERK2 normalized to solvent control)” value is given as “approximately 50%” in data set [5] (12.5 µM), over 70% in data set [5] (50 µM) and over 80% in [5] (100 µM). Also, the “lowest concentration at which IAV PR8 NP was significantly reduced compared to solvent control” value in data set [5] is given as 0.39 µM. Besides, the “increase of TMPRSS2 expression” value in data set [6] (50 µM) turned out to be 14%; in [6] (100 µM) it was 17%. In addition, the “effect on ERK2 content in the cells” value in data set [7] was “does not affect”. Further, in data set [8], the “efficacy in terms of the primary endpoint, phase II clinical trial” value is reported as “clinically relevant efficacy profile”. The “safety profile, phase II clinical trial” value in [8] was “favorable safety profile”. The IC50 in data set [9] (Caco-2, Caco-2 cells, 0% FBS) is 0.04 µM; in data set [9] (Caco-2, Caco-2 cells, 0.2% BSA) it was 4.32 µM; in data set [9] (Caco-2, Caco-2 cells, 5% FBS), 4.46 µM; in [9] (Caco-2, Caco-2 cells, 10% FBS) it was 9.15 µM; in data set [9] (Calu-3, Calu-3 cells, 0% FBS), 0.06 µM; in data set [9] (Calu-3, Calu-3 cells, 0.2% BSA) it was 5.33 µM. The IC50 stood at 6.64 µM in [9] (Calu-3, Calu-3 cells, 5% FBS) and 8.25 µM in [9] (Calu-3, Calu-3 cells, 10% FBS).

As usually defined, the EC50 is the concentration giving half of the maximal effect. As a reminder, the IC50 is the concentration that gives 50% inhibition.
